Results from patent publication US7253286B2, “Nitrogen-containing aromatic derivatives” (Eisai Co., Ltd, priority 2000, dated 2007).

Assays:
[1] = system: Human Umbilical Vein Endothelial Cells (HUVECs); assay: Inhibition against invasive tube formation by vascular endothelial cells in response to stimulation by angiogenic factor mixture; type: cell-based; set-up: key: the number of tubes formed in the absence of the test substance was designated as +++; scored on the 5-level scale of +++, ++, +, +/−, −; scored on the 5-level scale of +++, ++, +, +/−, −; scored on the 5-level scale of +++, ++, +, +/−, −; − was assigned if absolutely no tubes formed; conditions: HUVEC on fibrin gel, EGF/FGF2/VEGF/HGF/TNF-α mixture, 6th day, MTT staining; for number of tubes formed in the fibrin gel (score) at 0.01 μM: test substance 0.01 μM; for number of tubes formed in the fibrin gel (score) at 0.1 μM: test substance 0.1 μM; for number of tubes formed in the fibrin gel (score) at 1.0 μM: test substance 1.0 μM
Protocol: Inhibition Against Invasive Tube Formation by Vascular Endothelial Cells in Response to Stimulation by Angiogenic Factor Mixture
Human Umbilical Vein Endothelial Cells (HUVECs) were isolated according to a reported method (Shinseikagaku Jikken Koza [New Biochemistry Experiment Lectures], “Saibo Baiyo Gijutsu” [Cell Culturing Techniques], p.197–202), and were cultured in a 5% CO2 incubator (37° C.) using EGM-2 medium (purchased from Clonetics Corp.) until the cells reached confluency. After adding 0.4 ml of bovine fibrinogen (purchased from Sigma Co.) to the inner well of a Transwell culturing plate (purchased from Coster Inc.), it was hardened with 0.7 units/ml of thrombin (purchased from Sigma Co.). The HUVECs were recovered using trypsin-EDTA and then suspended in human endothelial serum free medium basal growth medium (hereinafter abbreviated as SFM, purchased from GIBCO BRL), and 0.4 ml of the cell suspension (1.4×10^5 cells) was seeded onto the hardened fibrin gel and cultured for approximately 4 hours in a 5% CO2 incubator (37° C.). After 4 hours, there was added to the outer chamber of the Transwell 1.5 ml of an SFM solution containing a mixture of angiogenic factors {10 ng/ml EGF (purchased from GIBCO BRL), 30 ng/ml FGF2 (purchased from GIBCO BRL), 75 ng/ml VEGF (purchased from Wako Pure Chemical Industries Co., Ltd.), 50 ng/ml HGF (purchased from R&D Co.) and 7.5 ng/ml TNF-α (purchased from Genzyme Corp.) [The concentrations of the angiogenic factors differed slightly according to the HUVEC lot.]} and a diluted test substance, and culturing was carried out in a 5% CO2 incubator (37° C.). On the 2nd and 4th days after adding the test substance, the medium was exchanged with 1.5 ml of freshly prepared SFM solution containing the angiogenic factor mixture and test substance. Upon aspirating off the culture supernatant in the inner well on the 6th day after the initial addition of the test substance, 0.4 ml of a 3.3 mg/ml MTT solution dissolved in PBS (purchased from Sigma Corp.) was added and culturing was performed for approximately 1 hour in a 5% CO2 incubator (37° C.). The number of tubes formed in the fibrin gel stained with MTT was scored based on microscope observation. Specifically, the number of tubes formed in the absence of the test substance was designated as +++, while − was assigned if absolutely no tubes formed. The number of tubes formed in the presence of the test substance was scored on the 5-level scale of +++, ++, +, +/−, − to evaluate the strength of inhibition of the test substance.

[2] = system: Human Umbilical Vein Endothelial Cells (HUVECs); assay: Inhibition against sandwich tube formation by vascular endothelial cells in response to stimulation by VEGF; type: cell-based; conditions: HUVEC in collagen gel sandwich, stimulation by VEGF (25 ng/ml VEGF and 10 ng/ml EGF), 4th day, total tube length, read-out: IC50 (concentration required for 50% inhibition of tube formation)
Protocol: Inhibition Against Sandwich Tube Formation by Vascular Endothelial Cells in Response to Stimulation by Angiogenic Factor
Human Umbilical Vein Endothelial Cells (HUVECS) were isolated by the same method as in Pharmacological Test Example 1, and were cultured in a 5% CO2 incubator (37° C.) using EGM-2 medium (purchased from Clonetics Corp.) until the cells reached confluency.
An ice-cooled mixture of collagen: 5× RPMI 1640: reconstitution buffer (all purchased from Nitta Gelatin, Inc.) at 7:2:1 was dispensed at 0.4 ml into each well of a 24-well plate, and then stationed for 40 minutes in a 5% CO2 incubator (37° C.) for gelling. The HUVECs were recovered using trypsin-EDTA and then suspended in human endothelial serum free medium (SFM, purchased from GIBCO BRL) containing added angiogenic factors [20 ng/ml FGF2 (purchased from GIBCO BRL) and 10 ng/ml EGF (purchased from GIBCO BRL), or 25 ng/ml VEGF (purchased from Wako Pure Chemical Industries Co., Ltd.) and 10 ng/ml EGF, or 30 ng/ml HGF (purchased from R&D Co.) and 10 ng/ml EGF], and the cell suspension was added at 0.4 ml to each well (with the cell counts differing slightly according to the HUVEC lot), and cultured overnight in a 5% CO2 incubator (37° C.). On the following day, the medium on the upper layer was aspirated off, and then 0.4 ml of an ice-cooled mixture of collagen: 5× RPMI 1640: reconstitution buffer (all purchased from Nitta Gelatin, Inc.) at 7:2:1 was superposed into each well prior to stationing for 4 hours in a 5% CO2 incubator (37° C.) for gelling. After adding 1.5 ml of an SFM solution containing each of the aforementioned angiogenic factors and a diluted test substance onto the upper layer, culturing was performed in a 5% CO2 incubator (37° C.). Upon aspirating off the culture supernatant in each well on the 4th day after addition of the test substance, 0.4 ml of a 3.3 mg/ml MTT solution dissolved in PBS (purchased from Sigma Corp.) was added to each well and culturing was performed for approximately 2 hours in a 5% CO2 incubator (37° C.). The tubes formed in the collagen gel of each well were stained by the MTT, the tube images were loaded into a computer (Macintosh), and the total length of the tubes was determined by image analysis software “MacScope” (purchased from Mitani Corp.). The ratio of the total length of the tubes formed in the well containing the test substance with respect to the total length of the tubes formed in the well containing no test substance was expressed as a percentage, and the concentration of each test substance required for 50% inhibition of tube formation (IC50) was determined from the ratio value.

## CCN1CCN(CCCOc2cc3nccc(Oc4ccc(NC(=O)Nc5ccc(OC)cc5)cc4)c3cc2C#N)CC1 [Example 53, N-(4-(6-Cyano-7-(3-(1-(4-ethyl)piperazino)propoxy)-4-quinolyl)oxyphenyl)-N′-(4-methoxyphenyl)urea]
[1]
  number of tubes formed in the fibrin gel (score) at 0.01 μM: +++
  number of tubes formed in the fibrin gel (score) at 0.1 μM: +/−
  number of tubes formed in the fibrin gel (score) at 1.0 μM: −
[2]
  IC50: 9.9 nM

## COc1ccc(NC(=O)Nc2ccc(Oc3ccnc4cc(OCCOCCO)c(C#N)cc34)cc2)cc1 [Example 72, N-(4-(6-Cyano-7-(2-(2-hydroxyethoxy)ethoxy)-4-quinolyl)oxyphenyl)-N′-(4-methoxyphenyl)urea]
[1]
  number of tubes formed in the fibrin gel (score) at 0.01 μM: +++
  number of tubes formed in the fibrin gel (score) at 0.1 μM: −
  number of tubes formed in the fibrin gel (score) at 1.0 μM: −
[2]
  IC50: 22 nM

## CS(=O)(=O)c1cccc(NC(=O)Nc2ccc(Oc3ccnc4cc(OCCCN5CCOCC5)c(C#N)cc34)cc2)c1 [Example 74, N-(4-(6-Cyano-7-(3-(4-morpholino)propoxy)-4-quinolyl)oxyphenyl)-N′-(3-(methylsulfonyl)phenyl)urea]
[1]
  number of tubes formed in the fibrin gel (score) at 0.01 μM: ++
  number of tubes formed in the fibrin gel (score) at 0.1 μM: −
  number of tubes formed in the fibrin gel (score) at 1.0 μM: −
[2]
  IC50: 5.9 nM

## CCN(CC)CCCOc1cc2nccc(Oc3ccc(NC(=O)Nc4ccccc4)cc3)c2cc1C#N [Example 75, N-(4-(6-Cyano-7-(3-(diethylamino)propoxy)-4-quinolyloxy)phenyl)-N′-phenylurea]
[1]
  number of tubes formed in the fibrin gel (score) at 0.01 μM: +++
  number of tubes formed in the fibrin gel (score) at 0.1 μM: +/−
  number of tubes formed in the fibrin gel (score) at 1.0 μM: −
[2]
  IC50: 1.4 nM

## N#Cc1cc2c(Oc3ccc(NC(=O)Nc4ccc(F)cc4F)c(F)c3)ccnc2cc1OCc1ccccc1 [Example 81, N-(4-(6-Cyano-7-benzyloxy-4-quinolyl)oxy-2-fluorophenyl)-N′-(2,4-difluorophenyl)urea]
[1]
  number of tubes formed in the fibrin gel (score) at 0.01 μM: ++
  number of tubes formed in the fibrin gel (score) at 0.1 μM: −
  number of tubes formed in the fibrin gel (score) at 1.0 μM: −
[2]
  IC50: 1.8 nM

## CCN(CC)CCOc1ccc(-c2cc3c(Oc4ccc(NC(=O)NC5CC5)c(Cl)c4)ncnc3[nH]2)cc1 [Example 153, 1-(2-Chloro-4-{6-[4-(2-diethylaminoethoxy)-phenyl]-7H-pyrrolo[2,3-d]pyrimidin-4-yloxy}phenyl)-3-cyclopropylurea]
[1]
  number of tubes formed in the fibrin gel (score) at 0.01 μM: +/−
  number of tubes formed in the fibrin gel (score) at 0.1 μM: −
  number of tubes formed in the fibrin gel (score) at 1.0 μM: −
[2]
  IC50: 0.02 nM

## O=C(Nc1ccc(Oc2ncnc3[nH]c(-c4ccccc4)cc23)cc1)Nc1cccc(F)c1 [Example 172, 1-(3-Fluorophenyl)-3-[4-(6-phenyl-7H-pyrrolo[2,3-d]pyrimidin-4-yloxy)phenyl]urea]
[1]
  number of tubes formed in the fibrin gel (score) at 0.01 μM: +
  number of tubes formed in the fibrin gel (score) at 0.1 μM: +/−
  number of tubes formed in the fibrin gel (score) at 1.0 μM: +/−

## O=C(CCCN1CCC(O)CC1)Nc1cc(Oc2ccc3c(ccn3C(=O)Nc3ccccc3)c2)ccn1 [Example 189, N1-Phenyl-5-[(2-{[4-(4-hydroxypiperidino)butanoyl]amino}-4-pyridyl)oxy]-1H-1-indolecarboxamide]
[1]
  number of tubes formed in the fibrin gel (score) at 0.01 μM: +/−
  number of tubes formed in the fibrin gel (score) at 0.1 μM: −
  number of tubes formed in the fibrin gel (score) at 1.0 μM: −
[2]
  IC50: 0.3 nM

## O=C(Nc1cc(Oc2ccc3c(ccn3C(=O)NC3CC3)c2)ccn1)C1CC1 [Example 212, N1-Cyclopropyl-5-({2-[(cyclopropylcarbonyl)amino]-4-pyridyl}oxy)-1H-1-indolecarboxamide]
[1]
  number of tubes formed in the fibrin gel (score) at 0.01 μM: +/−
  number of tubes formed in the fibrin gel (score) at 0.1 μM: −
  number of tubes formed in the fibrin gel (score) at 1.0 μM: −

## COc1cc2nccc(Sc3ccc(NC(=O)Nc4ccc(F)cc4)s3)c2cc1C(N)=O [Example 245, 4-(5-(3-(4-Fluorophenyl)ureido)thiophen-2-ylsulfanyl)-7-methoxyquinoline-6-carboxamide]
[1]
  number of tubes formed in the fibrin gel (score) at 0.01 μM: +/−
  number of tubes formed in the fibrin gel (score) at 0.1 μM: −
  number of tubes formed in the fibrin gel (score) at 1.0 μM: −

## CCN(CC)CCCOc1cc2nccc(Oc3ccc4c(ccn4C(=O)NC4CC4)c3)c2cc1C#N [Example 298, 5-[6-Cyano-7-(3-diethylaminopropoxy)quinolin-4-yloxy]indole-1-carboxylic acid cyclopropylamide]
[1]
  number of tubes formed in the fibrin gel (score) at 0.01 μM: +/−
  number of tubes formed in the fibrin gel (score) at 0.1 μM: −
  number of tubes formed in the fibrin gel (score) at 1.0 μM: −
[2]
  IC50: 0.7 nM

## COc1cc2nccc(Oc3ccc(NC(=O)NC4CC4)c(Cl)c3)c2cc1C(N)=O [Example 368, 4-(3-Chloro-4-(cyclopropylaminocarbonyl)aminophenoxy)-7-methoxy-6-quinolinecarboxamide]
[1]
  number of tubes formed in the fibrin gel (score) at 0.01 μM: −
  number of tubes formed in the fibrin gel (score) at 0.1 μM: −
  number of tubes formed in the fibrin gel (score) at 1.0 μM: −
[2]
  IC50: 5.4 nM

## COc1cc2nccc(Oc3ccc(NC(=O)NC4CC4)c(Cl)c3)c2cc1C(=O)NCCF [Example 415, N6-(2-Fluoroethyl)-4-(3-chloro-4-(((cyclopropylamino)carbonyl)amino)phenoxy)-7-methoxy-6-quinolinecarboxamide]
[1]
  number of tubes formed in the fibrin gel (score) at 0.01 μM: +/−
  number of tubes formed in the fibrin gel (score) at 0.1 μM: −
  number of tubes formed in the fibrin gel (score) at 1.0 μM: −
[2]
  IC50: 3.8 nM

## CN1CCC(COc2cc3nccc(Oc4ccc(NC(=O)NC5CC5)c(Cl)c4)c3cc2C#N)CC1 [Example 422, N-(2-Chloro-4-((6-cyano-7-((1-methyl-4-piperidyl)methoxy)-4-quinolyl)oxy)phenyl)-N′-cyclopropylurea]
[1]
  number of tubes formed in the fibrin gel (score) at 0.01 μM: +
  number of tubes formed in the fibrin gel (score) at 0.1 μM: −
  number of tubes formed in the fibrin gel (score) at 1.0 μM: −
[2]
  IC50: 4.8 nM
